Values after ≈ are worked out from the molar mass of the structure shown. Square brackets hold non-standard residues; d marks the D form. Peptide text beside a SMILES is read from it. * marks the point of attachment. Palmitoyl = CCCCCCCCCCCCCCCC(=O)*; Dab = NCC[C@H](N)C(=O)O
What was measured:
[1] = test system: A549 human epithelial lung carcinoma; format: cell-based
Experimental: (§1) In the case of evaluation of cytotoxicity towards different types of the cancer cell lines (A375, A549, HCT-116, HT-29, and LNCaP, respective cells were seeded in 96-well plates (4500 cell/well) in the RPMI-1640 medium supplemented with 5% FBS without antibiotics and incubated for 24 h before stimulation with the lipopeptides. The next day, the cells were exposed to the effect of the serially diluted compounds added at concentrations ranging from 1 to 25 µg/mL for a period of 48 h. After the treatment, cells viability was evaluated by means of MTT assays, according to standard protocol, as just described. The experiment was repeated three times for each cell line.
(§2) Determination of the half-maximum inhibitory concentrations (IC50) was done using GraphPad Prism 5 software (San Diego, CA, USA) based on the dose-response curves. The logarithm of the different concentrations of compounds was plotted against the percentage of inhibition in cell viability as compared with control probes, treated as 100%.

[2] = test system: HCT-116 human colorectal carcinoma; format: cell-based
Experimental: as §1, §2

[3] = test system: LNCaP human prostate carcinoma; format: cell-based
Experimental: as §1, §2

[4] = test system: HT-29 human colorectal adenocarcinoma; format: cell-based
Experimental: as §1, §2

[5] = test system: A375 human malignant melanoma cell line; format: cell-based
Experimental: as §1, §2

[6] = Surface tension measurements (critical aggregation concentration); format: physicochemical; conditions: Wilhelmy plate method, aqueous solution, 298 K; for Critical aggregation concentration (CAC): surface tension
Experimental: The surface tension was determined in aqueous solution at 298 K by the Wilhelmy plate method using a Force Tensiometer K100 (Krüss, Hamburg, Germany). The results were presented as a function of decimal logarithm of lipopeptide concentration. The critical aggregation concentration (CAC) was defined as the intersection of two straight lines best fitting to data points before and after reaching the CAC point.

[7] = molecular target: POPG large unilamellar vesicles (LUVs); assay: Isothermal titration calorimetry, binding to POPG; conditions: ITC, 298.15 K
Experimental: Isothermal titration calorimetry (ITC) experiments were carried out at 298.15 K using an AutoITC isothermal titration calorimeter (MicroCal Inc., GE Healthcare, Northampton, MA, USA) equipped with a 1.4491 mL sample cell and a reference cell. A typical ITC experiment involved a series of consecutive injections of 10.02 µL aliquots of the titrant (2 µL for the first injection only) into the reaction cell, at an interval of 4 min. The stirrer speed was constantly kept at 300 rpm to provide thorough mixing inside the reaction cell. Three types of ITC experiments were performed. These included lipopeptides binding to POPG, POPC, and LPS. The experiments were carried out by titration of 1.3 mM POPG or POPC LUVs into 0.05 or 0.1 mM lipopeptide solutions and the titration of 0.5 or 0.75 mM lipopeptide solution into 200 or 400 µg/mL LPS solution. The molecular mass of LPS was assumed to be 20,000 Da. To assess the heat of dilution, control experiments were performed by titration of an appropriate titrant into PBS. Final results were evaluated with an ITC module for ORIGIN 7 software, provided by MicroCal, Inc. (Northampton, MA, USA). The binding constant, stoichiometry, and enthalpy of interactions were directly determined from ITC experiment by fitting one of the built-in curve fitting models to the experimental data points. Changes in entropy (∆S°) and the Gibbs free energy (∆G°) were calculated from the following equation: ∆G^°=−RTln(55.5Ka)=∆H^°−T∆S^° where 55.5 is the molar concentration of water, R is the gas constant (1.986 cal·mol^−1·K^−1), and T is the absolute temperature.

[8] = test system: Staphylococcus aureus ATCC 25923; format: cell-based; conditions: ATCC 25923, 18 h
Excerpt: (§3) Fmoc-Lys(Boc)-OH and the coupling reagents were purchased from GL Biochem (Shanghai, China). Palmitoyl Fmoc-amino acids: Fmoc-Lys(C16)-OH, Fmoc-Orn(C16)-OH, Fmoc-Dab(C16)-OH, and Fmoc-Dap(C16)-OH were acquired from Iris Biotech GmbH (Marktredwitz, Germany). The resin and solvents were purchases from Rapp Polymere (Tübingen, Germany), Merck (Darmstadt, Germany), and Avantor Performance Materials (Gliwice, Poland), respectively. The phospholipids, 1,2-dipalmitoyl-sn-glycero-3-phosphocholine (DPPC), 1,2-dipalmitoyl-sn-glycero-3-[phospho-rac-(1-glycerol)] (DPPG), 1-palmitoyl-2-oleoyl-glycero-3-phosphocholine (POPC) and 1-palmitoyl-2-oleoyl-sn-glycero-3-[phospho-rac-(1-glycerol)] (POPG), were purchased from Avanti Polar Lipids (Alabaster, AL, USA). LPS E. coli 055:B5 and phosphate buffered saline (PBS) were from Sigma-Aldrich (Steinheim, Germany). The Mueller Hinton broth was bought from BIOCORP (Warsaw, Poland) and the RPMI-1640 medium from Sigma-Aldrich (Steinheim, Germany). LIVE/DEAD™ BacLight™ Bacterial Viability Kit was obtained from Thermo Fisher Scientific (Waltham, MA, USA). Bacterial strains (Escherichia coli ATCC 25922, Pseudomonas aeruginosa ATCC 9027, Staphylococcus aureus ATCC 25923, Staphylococcus epidermidis ATCC 1922) and the fungal strain (Candida albicans ATCC 10231) were obtained from the Polish Collection of Microorganisms, Polish Academy of Science, Institute of Immunology and Experimental Therapy, Wroclaw, Poland.
(§4) Antimicrobial activity of the lipopeptides was determined according to the broth microdilution guidelines recommended by the Clinical and Laboratory Standards Institute (CLSI). Minimum inhibitory concentrations (MICs) were assumed as the lowest concentration of the peptide solution, at which the visible growth of microorganisms was inhibited. MIC values of lipopeptides against bacteria were evaluated in the Mueller–Hinton broth and against fungus in the RPMI-1640 medium. Initial inoculums of bacteria and fungus (with concentrations of 5 × 10^5 CFU/mL and 2 × 10^3 CFU/mL, respectively) were exposed to increasing concentrations of lipopeptides solutions over the range of 1–512 µg/mL. […] The 96-well plates filled with appropriate inoculums and the tested compounds were incubated for 18 h at 37 °C. Presented values are the mean of the results obtained in three independent experiments.

[9] = test system: Pseudomonas aeruginosa ATCC 9027; format: cell-based; conditions: ATCC 9027, 18 h
Excerpt: as §3, §4

[10] = test system: Escherichia coli ATCC 25922; format: cell-based; conditions: ATCC 25922, 18 h
Excerpt: as §3, §4

[11] = test system: Candida albicans ATCC 10231; format: cell-based; conditions: ATCC 10231, 18 h
Excerpt: as §3, §4

[12] = test system: Staphylococcus epidermidis ATCC 1922; format: cell-based; conditions: ATCC 1922, 18 h
Excerpt: as §3, §4

[13] = intersection of two fitted lines
[14] = 1.3 mM POPG LUVs into lipopeptide, PBS, single transition or first line of two binding events

Row | γCAC, surface tension at the CAC point [6] [mN/m] | Critical aggregation concentration (CAC) [6] [mg/mL] | Critical aggregation concentration (CAC) [6, 13] [mM] | pKITC, POPG [7, 14] | pKITC, POPG ([7]; second line printed for the peptide (second binding event)) | SMILES | IC50, A549 (48h) [1] [µg/mL] | IC50, HCT-116 (48h) [2] [µg/mL] | IC50, LNCaP (48h) [3] [µg/mL] | IC50, HT-29 (48h) [4] [µg/mL] | IC50, A375 (48h) [5] [µg/mL] | MIC, S. aureus [8] [µg/mL] | MIC, P. aeruginosa [9] [µg/mL] | MIC, E. coli [10] [µg/mL] | MIC, C. albicans [11] [µg/mL] | MIC, S. epidermidis [12] [µg/mL]
1 | 39.8 | 4.0 | 6.6 | 8.09 ± 0.37 | 6.59 ± 0.26 | CCCCCCCCCCCCCCCC(=O)NCC[C@H](NC(=O)[C@@H](N)CCCCN)C(=O)N[C@@H](CCCCN)C(N)=O [K(DabC16)K-NH2] (H-Lys-[Dab](Palmitoyl)-Lys-NH2) | >25 | 16.79 ± 0.34 (≈ 27.4 µM) | 14.3 ± 0.45 (≈ 23.4 µM) | 21.56 ± 0.22 (≈ 35.2 µM) | 11.99 ± 0.38 (≈ 19.6 µM) | 8 (≈ 13.1 µM) | 16 (≈ 26.1 µM) | 8 (≈ 13.1 µM) | 16 (≈ 26.1 µM) | 8 (≈ 13.1 µM)
2 | 43.0 | 3.5 | 5.4 | 5.66 ± 0.11 | – | CCCCCCCCCCCCCCCC(=O)NCCCC[C@H](NC(=O)[C@@H](N)CCCCN)C(=O)N[C@@H](CCCCN)C(N)=O [K(KC16)K-NH2] | >25 | 20.72 ± 0.62 (≈ 32.4 µM) | >25 | 21.97 ± 1.10 (≈ 34.3 µM) | 20.34 ± 1.47 (≈ 31.8 µM) | 4 (≈ 6.25 µM) | 16 (≈ 25 µM) | 8 (≈ 12.5 µM) | 8 (≈ 12.5 µM) | 8 (≈ 12.5 µM)
3 | – | – | – | – | – | CCCCCCCCCCCCCCCC(=O)NCCCC[C@H](NC(=O)[C@H](CCCCN)NC(=O)[C@@H](N)CCCCN)C(=O)N[C@@H](CCCCN)C(=O)N[C@@H](CCCCN)C(N)=O [KK(KC16)KK-NH2] (H-KKK(Palmitoyl)KK-NH2) | >25 | 15.98 ± 0.16 (≈ 17.8 µM) | >25 | 18.98 ± 0.38 (≈ 21.2 µM) | >25 | 8 (≈ 8.93 µM) | 16 (≈ 17.9 µM) | 4 (≈ 4.46 µM) | 16 (≈ 17.9 µM) | 8 (≈ 8.93 µM)

Row | SMILES | γCAC, surface tension at the CAC point [6] [mN/m] | Critical aggregation concentration (CAC) [6] [mg/mL] | Critical aggregation concentration (CAC) [6, 13] [mM] | pKITC, POPG [7, 14] | pKITC, POPG ([7]; second line printed for the peptide (second binding event)) | IC50, A549 (48h) [1] [µg/mL] | IC50, HCT-116 (48h) [2] [µg/mL] | IC50, LNCaP (48h) [3] [µg/mL] | IC50, HT-29 (48h) [4] [µg/mL] | IC50, A375 (48h) [5] [µg/mL] | MIC, S. aureus [8] [µg/mL] | MIC, P. aeruginosa [9] [µg/mL] | MIC, E. coli [10] [µg/mL] | MIC, C. albicans [11] [µg/mL] | MIC, S. epidermidis [12] [µg/mL]
4 | CCCCCCCCCCCCCCCC(=O)NCCC[C@H](NC(=O)[C@@H](N)CCCCN)C(=O)N[C@@H](CCCCN)C(N)=O [K(OC16)K-NH2] | 39.2 | 3.7 | 5.9 | 5.79 ± 0.12 | – | >25 | 18.07 ± 0.54 (≈ 28.9 µM) | >25 | 20.51 ± 0.41 (≈ 32.8 µM) | 21.60 ± 0.76 (≈ 34.5 µM) | 8 (≈ 12.8 µM) | 8 (≈ 12.8 µM) | 8 (≈ 12.8 µM) | 8 (≈ 12.8 µM) | 8 (≈ 12.8 µM)

Reference: paper PMC7728077, “Double-Headed Cationic Lipopeptides: An Emerging Class of Antimicrobials” (International Journal of Molecular Sciences, 2020)
